Test results published in patent US20040156874A1, “Urea- a topical anti-inflammatory” (Bradley Pharmaceuticals, Inc., priority 2003, published 2004).

Columns and labels:
[1] = system: dermal inflammation; test: topical urea applied to inflamed skin; assay type: in vivo
[2] = system: common organisms; settings: high concentrations of urea, such as 40%; cited from earlier work
[3] = system: horny layer of the skin; settings: normal horny layer or ichthyotic/psoriatic scales soaked in 30% urea solution; cited from earlier work

## NC(N)=O [urea]
[1]; formulated in a pharmaceutically acceptable base
  dermal inflammation: improvement
[1]; inflammation due to microbial infection
  effectiveness against inflammation due to microbial infection: particularly effective
[2]
  antibacterial effect: mild, antibacterial effect
[3]
  water uptake of horny layer: take up much more water
